Assay results published in patent publication US20170028016A1, “METHODS OF TREATMENT OF C. DIFFICILE SPORES WITH RAMOPLANIN” (Nanotherapeutics, Inc., priority 2014, published 2017).
“Also recorded” adds a separate entry of the source.

How the values were obtained:
[1] = system: C. difficile spores (ribotype 027); experiment: Antimicrobial survey: continuous exposure of spores in water for six days, spore counts by plating; conditions: 37 °C, D0-D6
[2] = system: C. difficile spores (ribotype 027); experiment: Longevity / persistence assay: 30 min ramoplanin exposure, six washes, storage in water to day 28, spore counts; format: cell-based, Clostridium difficile; conditions: for spore growth when plated undiluted: to day 28
Method: As above, C. difficile (027) was exposed to multiple doses of Ramoplanin (30 min/37 C) and to water, stored at 37 C (anaerobic), and sampled at days D0, D1 D7, D14, and D28. […] From each level at each time, three aliquots were taken (i.e. n=3 for each subsequent assay) and each washed 6 times before the spore resuspension. Each wash (100 only) and spore suspension (100, 10-1 10-2) were counted on NaTBA.

[3] = system: C. difficile spores (ribotype 027), exosporium; experiment: Dependency of activity on exosporium: intact versus stripped (processed) spores exposed to ramoplanin; format: cell-based, Clostridium difficile
Method: C. difficile (027) exposure (30 min/37 C) to multiple doses of ramoplanin and to water was evaluated. Following ramoplanin exposure for 30 minutes, sampling occurred at days D0, D1, D7, D14, and D28. Without wishing to be bound by any particular theory, sampling over time may characterize the duration of effect having clinical implication on the duration of oral therapy. From each level at each time point, three aliquots were taken (i.e. n=3 for each subsequent assay) and each washed 6 times before the spore re-suspension. Each wash (100 only) and spore suspension (100, 10-1 10-2) were counted on NaTBA and assayed for ramoplanin by a zone of inhibition assay using S. salivarius.
From this example, it appears that the absence of a spore exosporium diminishes the bactericidal effect of Ramoplanin. Following enzyme digest and sonication of spore prep (Cortes et. al.) to removal the exosporium, the spores were exposed (027) to single dose of Ramoplanin (600 mcg/mL) vs water for 30 min and sampled (supernatant and prep) at 1 time point (T0).
Spore exosporia were removed as described by Escobar-Cortes et al. 2013. Proteases and sonication specifically remove the exosporium layer of spores of C. difficile strain 630. […] Briefly, spores were washed four times by centrifugation (10 minutes at 10,000×g) and resuspended in deionized water followed by final resuspension in 15 mL of PBS and sonicated for 90 seconds. Three mL of 10% Sarkosyl (detergent) were added to each preparation and subsequently incubated 15 minutes at room temperature with rocking. Preparations were then centrifuged for 10 minutes at 10,000×g, and pellets were resuspended in 10 mL PBS with 0.1 mL of 1M Tris and 10 mg of lysozyme. Spores were rocked overnight at 37±2° C. and then sonicated for 90 seconds, passed through a 50% solution of sucrose using a swinging bucket rotor for 20 minutes at 4,000×g, and resuspended in a solution containing 3 mL PBS, 200 mM EDTA, 300 ng/mL Proteinase K and 1% Sarkosyl. The spores were further rocked at room temperature for 20 minutes and were passed through a 50% solution of sucrose as previously described by Sabja et al, Id. Next, the spores were washed in deionized water by two centrifugation steps for 10 minutes at 10,000×g and resuspended in deionized water; plating and incubation were carried out as described in the foregoing text.
Adherence of ramoplanin to C. difficile exosporium: In order to determine whether the exosporium was essential to the observed growth-inhibiting effects of ramoplanin, the exosporia were processed as described in Escobar-Cortes et al, 2013, resulting in spores with “stripped” exosporia, and then compared to unprocessed spores (with “intact” exosporia) under three separate conditions (all ramoplanin concentrations were 300 μg/mL): (1) ramoplanin exposure with no subsequent spore processing (i.e., “intact”), (2) ramoplanin exposure with subsequent spore processing (i.e., “stripped”), and (3) water exposure with subsequent spore processing (FIG. 6). […] After ramoplanin exposure, the difference in spore counts between samples that were not processed (with presumed intact exposporia) and samples that were processed (without presumed exposporia) was significant (p<0.0001). No difference in spore count was noted when comparing processed spores that had been exposed to ramoplanin to spores exposed only to water (p=0.389).

[4] = system: C. difficile spores (ribotype 027); experiment: Dose-dependent sporicidal assay: spores exposed to ramoplanin, washed 6 times, plated on NaTBA; format: cell-based, Clostridium difficile
Method: C. difficile exposure at three levels of ramoplanin (2, 300, 600 μg/mL) and to water was evaluated. […] The wash supernatant fluids (n=6/level) and the final spore suspensions (n=1/level) were counted by plating three 10-fold serial dilutions on NaTaurocholate Blood Agar (NaTBA). Each set of three counts were averaged and compared by t-test.

Molecule: Cc1ncc([N+](=O)[O-])n1CCO [metronidazole]
- spore counts on continuous exposure, compared to baseline ([1]; metronidazole 10 μg/mL): did not significantly reduce spore counts

Molecule: CN[C@H](CC(C)C)C(=O)N[C@H]1C(=O)N[C@@H](CC(N)=O)C(=O)N[C@H]2C(=O)N[C@H]3C(=O)N[C@H](C(=O)N[C@H](C(=O)O)c4cc(O)cc(O)c4-c4cc3ccc4O)[C@H](O)c3ccc(c(Cl)c3)Oc3cc2cc(c3O[C@@H]2O[C@H](CO)[C@@H](O)[C@H](O)[C@H]2O[C@H]2C[C@](C)(N)[C@H](O)[C@H](C)O2)Oc2ccc(cc2Cl)[C@H]1O [vancomycin]
- spore counts on continuous exposure, compared to baseline ([1]; vancomycin 500 μg/mL): did not significantly reduce spore counts

Molecule: ramoplanin
- organism recovery from 30 min after exposure and wash through day 28 ([2]; 30 min/37 C exposure, 6 washes, stored at 37 C anaerobic): no organisms are recoverable
- inhibition of spore growth relative to controls ([2]; ramoplanin 2 μg/mL, 30 min exposure, over 28 days): no inhibition relative to controls
- mean spore counts ±SEM over 28 days ([2]; ramoplanin 2 μg/mL, 30 min exposure, six washes): 2.3×10^4±4.6×10^2
- spore counts after diluting samples 10× ([2]; ramoplanin 300 μg/mL and 600 μg/mL, 30 min exposure): growth not measurable at previous dilution; also recorded: spore counts similar to the 0 and 2 μg/mL exposed spores
- spore growth when plated undiluted ([2]; ramoplanin 300 μg/mL, 30 min exposure, six washes): no counts; also recorded: no growth
- spore growth when plated undiluted ([2]; ramoplanin 600 μg/mL, 30 min exposure, six washes): no counts; also recorded: no growth
- growth-inhibitory effect when exosporia were removed before or after exposure ([3]; after multiple washes): not present
- spore counts, spores processed after exposure (stripped exosporia) ([3]; ramoplanin 300 μg/mL, exosporia removed after exposure): counts equivalent to water exposure
- spore growth, unprocessed spores (intact exosporia) ([3]; ramoplanin 300 μg/mL, no subsequent spore processing): no measurable counts; also recorded: no growth
- C. difficile recovery, spores stripped of the exosporium ([3]; ramoplanin 600 μg/mL, 30 min): high organism recovery
- C. difficile recovery, spores with intact exosporium ([3]; ramoplanin 600 μg/mL, 30 min): non-recoverable C. difficile
- persistence of bactericidal effect after washes ([4]; multiple washes (×6)): effect persists after multiple washes
- exposure time giving maximal effect ([4]; no apparent difference in effect vs. time): 30 min
- viability of ramoplanin-exposed spores when plated ([4]; ramoplanin 300 μg/mL (below fecal level), ribotype 027): non-viable
- spore counts on continuous exposure ([1]; ramoplanin 300 μg/mL): no counts; also recorded: no growth
